Assay results as given in US20060069132A1, “Azolecarboxamide herbicides” (priority 2004, published 2006).

Columns and labels:
Assay in all cases: Test C pre-/postemergence herbicide test
giant foxtail = type: in vivo, Setaria faberi; details: preemergence; for Plant response rating (0 = no effect, 100 = complete control), Foxtail, Giant: 125 g ai/ha
How it was run: (§1)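 Pre/post spray; non-phytotoxic solvent + surfactant. Post-timing 1–4 leaves, 2–18 cm. Read-out: visual % control vs untreated, day 12–14, greenhouse.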

morningglory = type: in vivo, Ipomoea coccinea; design: key to Plant response rating, Morningglory: 0 = no effect, 100 = complete control; details: preemergence; for Plant response rating (0 = no effect, 100 = complete control), Morningglory: 125 g ai/ha
How it was run: as §1

bermudagrass = type: in vivo, Cynodon dactylon; details: preemergence; for Plant response rating (0 = no effect, 100 = complete control), Bermudagrass: 125 g ai/ha
How it was run: as §1

pigweed = type: in vivo, Amaranthus retroflexus; details: preemergence; for Plant response rating (0 = no effect, 100 = complete control), Pigweed: 125 g ai/ha
How it was run: as §1

kochia = type: in vivo, Kochia scoparia; details: preemergence; for Plant response rating (0 = no effect, 100 = complete control), Kochia: 125 g ai/ha
How it was run: as §1

common ragweed = type: in vivo, Ambrosia elatior; design: key to Plant response rating, Ragweed: 0 = no effect, 100 = complete control; details: preemergence; for Plant response rating (0 = no effect, 100 = complete control), Ragweed: 125 g ai/ha
How it was run: as §1

soybean = type: in vivo, Glycine max; details: preemergence; for Plant response rating (0 = no effect, 100 = complete control), Soybean: 125 g ai/ha
How it was run: as §1

yellow nutsedge = type: in vivo, Cyperus esculentus; details: preemergence; for Plant response rating (0 = no effect, 100 = complete control), Nutsedge, Yellow: 125 g ai/ha
How it was run: as §1

large crabgrass = type: in vivo, Digitaria sanguinalis; details: preemergence; for Plant response rating (0 = no effect, 100 = complete control), Crabgrass, Large: 125 g ai/ha
How it was run: as §1

[1] = 500 g ai/ha, scale 0 to 100 (0 no effect, 100 complete control), visual, 12 to 14 days
[2] = 62 g ai/ha, scale 0 to 100, 0 no effect, 100 complete control

Row | SMILES | Plant response rating, Foxtail, Giant (giant foxtail; 62 g ai/ha, scale 0 to 100) | Plant response rating (0 = no effect, 100 = complete control), Foxtail, Giant (giant foxtail) | Plant response rating, Foxtail, Giant (giant foxtail; 250 g ai/ha, scale 0-100) | Plant response rating, Foxtail, Giant (giant foxtail; [1]) | Plant response rating, Morningglory (morningglory; 62 g ai/ha, scale 0 to 100) | Plant response rating (0 = no effect, 100 = complete control), Morningglory (morningglory) | Plant response rating, Morningglory (morningglory; [1]) | Plant response rating, Bermudagrass (bermudagrass; [2]) | Plant response rating (0 = no effect, 100 = complete control), Bermudagrass (bermudagrass) | Plant response rating, Bermudagrass (bermudagrass; 250 g ai/ha, scale 0-100) | Plant response rating, Bermudagrass (bermudagrass; [1]) | Plant response rating, Pigweed (pigweed; 62 g ai/ha, scale 0 to 100) | Plant response rating (0 = no effect, 100 = complete control), Pigweed (pigweed) | Plant response rating, Pigweed (pigweed; [1]) | Plant response rating, Kochia (kochia; 62 g ai/ha, scale 0 to 100) | Plant response rating (0 = no effect, 100 = complete control), Kochia (kochia) | Plant response rating, Kochia (kochia; 250 g ai/ha, scale 0-100) | Plant response rating, Kochia (kochia; [1]) | Plant response rating, Ragweed (common ragweed; 62 g ai/ha, scale 0 to 100) | Plant response rating (0 = no effect, 100 = complete control), Ragweed (common ragweed) | also measured
1 | Cc1nn(C(C)(C)C)nc1C(=O)Nc1cccc(C(=S)N(C)C)c1 [Compound 419] | 75 | 85 | 95 | 100 | 15 | 25 | 100 | 100 | 100 | 100 | 100 | 100 | 100 | 100 | 90 | 95 | 100 | 100 | 10 | 15 | Plant response rating, Ragweed (common ragweed; [1]): 100; Plant response rating, Soybean (soybean; 62 g ai/ha, scale 0 to 100): 40; Plant response rating (0 = no effect, 100 = complete control), Soybean (soybean): 85; Plant response rating, Soybean (soybean; [1]): 95; Plant response rating, Nutsedge, Yellow (yellow nutsedge; 62 g ai/ha, scale 0 to 100): 0; Plant response rating (0 = no effect, 100 = complete control), Nutsedge, Yellow (yellow nutsedge): 0; Plant response rating, Nutsedge, Yellow (yellow nutsedge; [1]): 0; Plant response rating, Crabgrass, Large (large crabgrass; 62 g ai/ha, scale 0 to 100): 100; Plant response rating (0 = no effect, 100 = complete control), Crabgrass, Large (large crabgrass): 100; Plant response rating, Crabgrass, Large (large crabgrass; 250 g ai/ha, scale 0-100): 100; Plant response rating, Crabgrass, Large (large crabgrass; [1]): 100
2 | CCNC(=S)c1cccc(NC(=O)c2nn(C(C)(C)C)nc2C)c1 [Compound 420] | 20 | 90 | 100 | 100 | 10 | 55 | 100 | 100 | 100 | 100 | 100 | 100 | 100 | 100 | 70 | 85 | 100 | 100 | 0 | 55 | Plant response rating, Ragweed (common ragweed; [1]): 85; Plant response rating, Soybean (soybean; 62 g ai/ha, scale 0 to 100): 0; Plant response rating (0 = no effect, 100 = complete control), Soybean (soybean): 10; Plant response rating, Soybean (soybean; [1]): 85; Plant response rating, Nutsedge, Yellow (yellow nutsedge; 62 g ai/ha, scale 0 to 100): 0; Plant response rating (0 = no effect, 100 = complete control), Nutsedge, Yellow (yellow nutsedge): 0; Plant response rating, Nutsedge, Yellow (yellow nutsedge; [1]): 25; Plant response rating, Crabgrass, Large (large crabgrass; 62 g ai/ha, scale 0 to 100): 100; Plant response rating (0 = no effect, 100 = complete control), Crabgrass, Large (large crabgrass): 100; Plant response rating, Crabgrass, Large (large crabgrass; 250 g ai/ha, scale 0-100): 100; Plant response rating, Crabgrass, Large (large crabgrass; [1]): 100
